The numbers were not newly measured in US7592342B2, “Quinoxaline derivatives as PI3 kinase inhibitors” (SmithKline Beecham Corporation, priority 2007, dated 2009), which cites them from elsewhere.

In this data set the target is CK2 protein kinase (Homo sapiens, UniProt P68400). Particulars: LY294002, literature.

Molecules are shown by their SMILES.

Sequence of CK2 protein kinase (P68400 whole entry): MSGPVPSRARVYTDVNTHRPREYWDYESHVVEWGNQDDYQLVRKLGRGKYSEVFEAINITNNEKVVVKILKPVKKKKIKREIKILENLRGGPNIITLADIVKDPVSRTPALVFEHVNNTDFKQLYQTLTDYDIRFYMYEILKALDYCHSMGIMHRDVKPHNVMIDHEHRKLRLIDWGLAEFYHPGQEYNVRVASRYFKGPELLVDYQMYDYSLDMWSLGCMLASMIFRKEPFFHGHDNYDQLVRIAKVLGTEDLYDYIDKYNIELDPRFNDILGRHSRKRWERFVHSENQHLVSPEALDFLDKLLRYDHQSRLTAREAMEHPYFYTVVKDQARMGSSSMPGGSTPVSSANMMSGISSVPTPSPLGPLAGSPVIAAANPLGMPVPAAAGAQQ

Turning to `O=c1cc(N2CCOCC2)oc2c(-c3ccccc3)cccc12` [LY294002], the half-maximal inhibitory concentration (IC50) was 5 to 10 µM.

A word on the IC50: it is the point on the concentration scale where inhibition reaches its midpoint.
